Assay results reported in patent publication US10590129B2 (Incozen Therapeutics Pvt. Ltd., priority 2010, dated 2020).

Key:
MKN-45 cells = assay: Inhibition of MKN-45 proliferation (MTT); format: cell-based, human; conditions: for inhibition at 0.1 µM / inhibition at 1 µM: Homo sapiens, MKN-45, MKN-45 proliferation
Summary of the method: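 Viability measured by MTT dye reduction on day 5 after compound addition on day 2 to MKN-45 gastric adenocarcinoma cells (high Met expression) seeded on day 1 in complete medium.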

| Structure (SMILES) | inhibition at 0.1 µM (MKN-45 cells; 0.1 μM) [%] | inhibition at 1 µM (MKN-45 cells; 1 μM) [%] | melting point [°C] | Inhibition (% Inhibition of MKN-45 proliferation) (MKN-45 cells; MKN-45 proliferation, 0.1 μM) | % inhibition @ 1 uM (MKN-45 cells; MKN-45 proliferation, 1 μM) |
| --- | --- | --- | --- | --- | --- |
| CCCNC(=O)c1ccc(-c2ccc3nnn(Cc4ccc5ncccc5c4)c3n2)cc1F [Ex 87, 2-Fluoro-N-propyl-4-(3-(quinolin-6-ylmethyl)-3H-[1,2,3]triazolo[4,5-b]pyridin-5-yl)benzamide] | 75 to 100 | < 25 | 157 to 159 | – | – |
| Cl.O=C(NC1CC1)c1ccc(-c2ccc3nnn(Cc4ccc5ncccc5c4)c3n2)cc1F [Ex 89, N-Cyclopropyl-2-fluoro-4-(3-(quinolin-6-ylmethyl)-3H-[1,2,3]triazolo[4,5-b]pyridin-5-yl)benzamide hydrochloride] | 75 to 100 | < 25 | 105 to 107 | – | – |
| O=C(NCC1CC1)c1ccc(-c2ccc3nnn(Cc4ccc5ncccc5c4)c3n2)cc1F [Ex 90, N-(Cyclopropylmethyl)-2-fluoro-4-(3-(quinolin-6-ylmethyl)-3H-[1,2,3]triazolo[4,5-b]pyridin-5-yl)benzamide] | 50 to 75 | 75 to 100 | 120 to 122 | – | – |
| CCCCNC(=O)c1ccc(-c2ccc3nnn(Cc4ccc5ncccc5c4)c3n2)cc1F [Ex 91, N-Butyl-2-fluoro-4-(3-(quinolin-6-ylmethyl)-3H-[1,2,3]triazolo[4,5-b]pyridin-5-yl)benzamide] | 25 to 50 | 50 to 75 | 100 to 102 | – | – |
| O=C(NCc1ccco1)c1ccc(-c2ccc3nnn(Cc4ccc5ncccc5c4)c3n2)cc1F [Ex 92, 2-Fluoro-N-(furan-2-ylmethyl)-4-(3-(quinolin-6-ylmethyl)-3H-[1,2,3]triazolo[4,5-b]pyridin-5-yl)benzamide] | – | < 25 | 144 to 147 | – | – |
| O=C(NCC(F)(F)F)c1ccc(-c2ccc3nnn(Cc4ccc5ncccc5c4)c3n2)cc1F [Ex 93, 2-Fluoro-4-(3-(quinolin-6-ylmethyl)-3H-[1,2,3]triazolo[4,5-b]pyridin-5-yl)-N-(2,2,2-trifluoroethyl)benzamide] | 25 to 50 | 25 to 50 | 194 to 196 | – | – |
| COCCNC(=O)c1ccc(-c2ccc3nnn(Cc4ccc5ncccc5c4)c3n2)cc1F [Ex 94, 2-Fluoro-N-(2-methoxyethyl)-4-(3-(quinolin-6-ylmethyl)-3H-[1,2,3]triazolo[4,5-b]pyridin-5-yl)benzamide] | 50 to 75 | < 25 | 162 to 164 | – | – |
| CC(C)NS(=O)(=O)c1ccc(-c2ccc3nnn(Cc4ccc5ncccc5c4)c3n2)cc1 [Ex 95, N-Isopropyl-4-(3-(quinolin-6-ylmethyl)-3H-[1,2,3]triazolo[4,5-b]pyridin-5-yl)benzenesulfonamide] | < 25 | 50 to 75 | 154 to 156 | – | – |
| CN(C)c1cccc(-c2ccc3nnn(Cc4ccc5ncccc5c4)c3n2)c1 [Ex 96, N,N-Dimethyl-3-(3-(quinolin-6-ylmethyl)-3H-[1,2,3]triazolo[4,5-b]pyridin-5-yl)aniline] | < 25 | < 25 | 124 to 126 | – | – |
| CC(C)CNC(=O)c1ccc(-c2ccc3nnn(Cc4ccc5ncccc5c4)c3n2)cc1F [Ex 97, 2-Fluoro-N-isobutyl-4-(3-(quinolin-6-ylmethyl)-3H-[1,2,3]triazolo[4,5-b]pyridin-5-yl)benzamide] | 25 to 50 | 25 to 50 | 158 to 160 | – | – |
| O=C(NC1CCCC1)c1ccc(-c2ccc3nnn(Cc4ccc5ncccc5c4)c3n2)cc1F [Ex 98, N-Cyclopentyl-2-fluoro-4-(3-(quinolin-6-ylmethyl)-3H-[1,2,3]triazolo[4,5-b]pyridin-5-yl)benzamide] | 25 to 50 | 50 to 75 | 166 to 168 | – | – |
| CC(C)NC(=O)c1ccc(-c2ccc3nnn(Cc4ccc5ncccc5c4)c3n2)cc1F [Ex 99, 2-Fluoro-N-isopropyl-4-(3-(quinolin-6-ylmethyl)-3H-[1,2,3]triazolo[4,5-b]pyridin-5-yl)benzamide] | 50 to 75 | 50 to 75 | 177 to 179 | – | – |
| CCCNC(=O)c1ccc(-c2ccc3nnn(Cc4ccc5ncccc5c4)c3n2)cc1Cl [Ex 102, 2-Chloro-N-propyl-4-(3-(quinolin-6-ylmethyl)-3H-[1,2,3]triazolo[4,5-b]pyridin-5-yl)benzamide] | 50 to 75 | 75 to 100 | 128 to 130 | – | – |
| CNC(=O)c1ccc(-c2ccc3nnn(C(C)(C)c4ccc5ncccc5c4)c3n2)cc1F [Ex 103, 2-Fluoro-N-methyl-4-(3-(2-(quinolin-6-yl)propan-2-yl)-3H-[1,2,3]triazolo[4,5-b]pyridin-5-yl)benzamide] | < 25 | – | 171 to 173 | – | – |
| O=C(NC1CCC1)c1ccc(-c2ccc3nnn(Cc4ccc5ncccc5c4)c3n2)cc1F [Ex 104, N-Cyclobutyl-2-fluoro-4-(3-(quinolin-6-ylmethyl)-3H-[1,2,3]triazolo[4,5-b]pyridin-5-yl)benzamide] | 50 to 75 | 75 to 100 | 171 to 174 | – | – |
| CCCNC(=O)c1ccc(-c2ccc3nnn(C(C)(C)c4ccc5ncccc5c4)c3n2)cc1F [Ex 105, 2-Fluoro-N-propyl-4-(3-(2-(quinolin-6-yl)propan-2-yl)-3H-[1,2,3]triazolo[4,5-b]pyridin-5-yl)benzamide] | < 25 | < 25 | 162 to 164 | – | – |
| CC(C)(c1ccc2ncccc2c1)n1nnc2ccc(-c3ccc(C(=O)NC4CC4)c(F)c3)nc21 [Ex 106, N-Cyclopropyl-2-fluoro-4-(3-(2-(quinolin-6-yl)propan-2-yl)-3H-[1,2,3]triazolo[4,5-b]pyridin-5-yl)benzamide] | < 25 | 75 to 100 | 156 to 159 | – | – |
| CCNC(=O)c1ccc(-c2ccc3nnn(C(C)(C)c4ccc5ncccc5c4)c3n2)cc1F [Ex 107, N-Ethyl-2-fluoro-4-(3-(2-(quinolin-6-yl)propan-2-yl)-3H-[1,2,3]triazolo[4,5-b]pyridin-5-yl)benzamide] | < 25 | – | 132 to 135 | – | – |
| CNC(=O)c1ccc(-c2ccc3nnn(Cc4ccc5ncccc5c4)c3n2)cc1Cl [Ex 109, 2-Chloro-N-methyl-4-(3-(quinolin-6-ylmethyl)-3H-[1,2,3]triazolo[4,5-b]pyridin-5-yl)benzamide] | 75 to 100 | – | 227 to 230 | – | – |
| CONC(=O)c1ccc(-c2ccc3nnn(Cc4ccc5ncccc5c4)c3n2)cc1F.Cl [Ex 110, 2-Fluoro-N-methoxy-4-(3-(quinolin-6-ylmethyl)-3H-[1,2,3]triazolo[4,5-b]pyridin-5-yl)benzamide hydrochloride] | – | – | 145 to 147 | B (B = ≥50-<75%) | B (B = ≥50-<75%) |
| O=C(Nc1nccs1)c1ccc(-c2ccc3nnn(Cc4ccc5ncccc5c4)c3n2)cc1F [Ex 111, 2-Fluoro-4-(3-(quinolin-6-ylmethyl)-3H-[1,2,3]triazolo[4,5-b]pyridin-5-yl)-N-(thiazol-2-yl)benzamide] | < 25 | 75 to 100 | 204 to 206 | – | – |
| O=C(NCCC(=O)N1CCCC1)c1ccc(-c2ccc3nnn(Cc4ccc5ncccc5c4)c3n2)cc1F [Ex 114, 2-Fluoro-N-(3-oxo-3-(pyrrolidin-1-yl)propyl)-4-(3-(quinolin-6-ylmethyl)-3H-[1,2,3]triazolo[4,5-b]pyridin-5-yl)benzamide] | 50 to 75 | 50 to 75 | 151 to 153 | – | – |
| O=C(NO)c1ccc(-c2ccc3nnn(Cc4ccc5ncccc5c4)c3n2)cc1F [Ex 115, 2-Fluoro-N-hydroxy-4-(3-(quinolin-6-ylmethyl)-3H-[1,2,3]triazolo[4,5-b]pyridin-5-yl)benzamide] | < 25 | 75 to 100 | 180 to 182 | – | – |
| CC(C)NC(=O)c1ccc(-c2ccc3nnn(Cc4ccc5ncccc5c4)c3n2)cc1 [Ex 116, N-Isopropyl-4-(3-(quinolin-6-ylmethyl)-3H-[1,2,3]triazolo[4,5-b]pyridin-5-yl)benzamide] | < 25 | 75 to 100 | 181 to 183 | – | – |
| O=C(NCCC(=O)N1CCCCC1)c1ccc(-c2ccc3nnn(Cc4ccc5ncccc5c4)c3n2)cc1F [Ex 117, 2-Fluoro-N-(3-oxo-3-(piperidin-1-yl)propyl)-4-(3-(quinolin-6-ylmethyl)-3H-[1,2,3]triazolo[4,5-b]pyridin-5-yl)benzamide] | 50 to 75 | 75 to 100 | 109 to 111 | – | – |
| CCNC(=O)Nc1ccc(-c2ccc3nnn(Cc4ccc5ncccc5c4)c3n2)cc1 [Ex 118, 1-Ethyl-3-(4-(3-(quinolin-6-ylmethyl)-3H-[1,2,3]triazolo[4,5-b]pyridin-5-yl)phenyl)urea] | < 25 | 75 to 100 | 193 to 196 | – | – |
| O=C(NCCC(=O)N1CCOCC1)c1ccc(-c2ccc3nnn(Cc4ccc5ncccc5c4)c3n2)cc1F [Ex 120, 2-Fluoro-N-(3-morpholino-3-oxopropyl)-4-(3-(quinolin-6-ylmethyl)-3H-[1,2,3]triazolo[4,5-b]pyridin-5-yl)benzamide] | 75 to 100 | 25 to 50 | 212 to 215 | – | – |
| O=C(Nc1nc[nH]n1)c1ccc(-c2ccc3nnn(Cc4ccc5ncccc5c4)c3n2)cc1Cl [Ex 122, 2-chloro-4-(3-(quinolin-6-ylmethyl)-3H-[1,2,3]triazolo[4,5-b]pyridin-5-yl)-N-(1H-1,2,4-triazol-3-yl)benzamide] | < 25 | < 25 | 286 to 288 | – | – |
